Experimental data reported in PMC10439310 (Nature microbiology, 2022).

System: inosine-5’-monophosphate dehydrogenase (IMPDH, gene: guaB)
Assay type: binding, Bacillus anthracis
Conditions: [32P]-Ap4A, lysates of E. coli overexpressing B. anthracis ORFs

Question: For `Nc1ncnc2c1ncn2[C@@H]1O[C@H](COP(=O)(O)OP(=O)(O)OP(=O)(O)OP(=O)(O)OC[C@H]2O[C@@H](n3cnc4c(N)ncnc43)[C@H](O)[C@@H]2O)[C@@H](O)[C@H]1O` [Ap4A, diadenosine 5’,5’’’-P1,P4-tetraphosphate], which “binding in DRaCALA screen (in words)” value is on record?
Answer: putative Ap4A-binding partner
